Tested on: individually reexpressed FZDs (1,2,4,5,7,8, and 10)
Experiment: TopFlash in ΔFZD1–10 HEK293T, panel of individually reexpressed FZDs, Wnt3a-stimulated (collective statements)
Settings: compared with pcDNA+CHIR99021

Row | Compound | FZDs whose reintroduction reduces the compound's potency
1 | O=C(/C=C/c1ccc2c(c1)OCO2)Nc1ccc(-n2cnc3ccccc32)cc1 [SRI35959] | FZD1,4, and 7
2 | NC(=O)N1c2ccccc2C=Cc2ccccc21 [carbamazepine] | FZD5 and FZD8

From PMC11650735, “Challenging Reported Frizzled-Targeting Compounds in Selective Assays Reveals Lack of Functional Inhibition and Claimed Profiles” (ACS Pharmacology & Translational Science, 2024)
